Measured values from patent publication US11377442B2, “Small molecule agonists and antagonists of NR2F6 activity” (ZANDER THERAPEUTICS, INC., priority 2016, dated 2022).
Read-outs that look alike come from different tables or passages of the source.

Columns and labels:
Format in all cases: cell-based
NR2F6 = target: T1, NR2F6 (Homo sapiens, UniProt P10588); assay: NR2F6 agonist screening, Firefly signal cmpd/DMSO; settings: for F4, Firefly/Renilla for S/B(F4) > 3 / Firefly, F4/pGL4 for S/B(F4) > 3 / Firefly, F4, 10% FBS, cmpd/DMSO (mean): 10% FBS
T1 construct: expressed in transfected cells; also transient transfection
T1 sequence (P10588 1-404): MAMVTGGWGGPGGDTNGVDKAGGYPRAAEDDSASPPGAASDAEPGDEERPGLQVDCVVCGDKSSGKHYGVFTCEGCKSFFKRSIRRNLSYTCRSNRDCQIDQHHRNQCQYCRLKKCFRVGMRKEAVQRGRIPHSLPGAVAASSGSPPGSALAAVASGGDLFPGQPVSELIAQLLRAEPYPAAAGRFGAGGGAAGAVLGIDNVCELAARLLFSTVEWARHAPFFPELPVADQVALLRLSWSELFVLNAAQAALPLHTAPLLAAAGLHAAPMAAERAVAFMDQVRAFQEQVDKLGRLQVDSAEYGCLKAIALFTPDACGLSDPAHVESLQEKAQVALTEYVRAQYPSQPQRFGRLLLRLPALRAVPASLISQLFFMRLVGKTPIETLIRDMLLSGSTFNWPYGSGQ

Renilla = Renilla signal in NR2F6 agonist screening, cmpd/DMSO; settings: Renilla, F4
NR2F6 LBD = target: T2, NR2F6 LBD (Homo sapiens, UniProt P10588); assay: NR2F6 LBD transient transfection; settings: LBD
T2 construct: expressed in transfected cells
T2 sequence (P10588 165-393 limits assumed): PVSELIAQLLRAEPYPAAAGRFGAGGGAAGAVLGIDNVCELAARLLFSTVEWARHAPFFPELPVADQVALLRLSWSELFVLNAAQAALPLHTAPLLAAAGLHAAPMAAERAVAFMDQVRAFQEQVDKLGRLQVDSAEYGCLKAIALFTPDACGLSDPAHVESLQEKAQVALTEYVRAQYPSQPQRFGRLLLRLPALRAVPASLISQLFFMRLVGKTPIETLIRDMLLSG
In short: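 LBD-transfected cells treated at 40, 10, 2 and 0.5 μM (4 replicates); cytotoxicity measured in parallel, normalized to DMSO (0%) and zero signal (100%). Higher concentrations excluded where signal loss reflected toxicity.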

HEK293 pGL4 = assay: Firefly_pGL signal, cmpd/DMSO (pGL4 control cells); settings: Homo sapiens
[1] = read-out: Renilla, F4, cmpd/DMSO (mean)
[2] = 1% FBS, read-out: Renilla, F4, 1% FBS, cmpd/DMSO (mean)
[3] = 10% FBS, read-out: Renilla, F4, 10% FBS, cmpd/DMSO (mean)
[4] = HEK293, 0.5 uM, pGL4, read-out: Firefly pGL4, cmpd/DMSO (mean)
[5] = HEK293, 2 uM, pGL4, read-out: Firefly pGL4, cmpd/DMSO (mean)
[6] = HEK293, 10 uM, pGL4, read-out: Firefly pGL4, cmpd/DMSO (mean)
[7] = HEK293, 40 uM, pGL4, read-out: Firefly pGL4, cmpd/DMSO (mean)
[8] = HEK293, pGL4, 1% FBS, 0.5 uM, read-out: Firefly, pGL4, 1% FBS, cmpd/DMSO (mean)
[9] = HEK293, pGL4, 1% FBS, 2 uM, read-out: Firefly, pGL4, 1% FBS, cmpd/DMSO (mean)
[10] = HEK293, pGL4, 1% FBS, 10 uM, read-out: Firefly, pGL4, 1% FBS, cmpd/DMSO (mean)
[11] = HEK293, pGL4, 1% FBS, 40 uM, read-out: Firefly, pGL4, 1% FBS, cmpd/DMSO (mean)
[12] = HEK293, pGL4, 10% FBS, 0.5 uM, read-out: Firefly, pGL4, 10% FBS, cmpd/DMSO (mean)
[13] = HEK293, pGL4, 10% FBS, 2 uM, read-out: Firefly, pGL4, 10% FBS, cmpd/DMSO (mean)
[14] = HEK293, pGL4, 10% FBS, 10 uM, read-out: Firefly, pGL4, 10% FBS, cmpd/DMSO (mean)
[15] = HEK293, pGL4, 10% FBS, 40 uM, read-out: Firefly, pGL4, 10% FBS, cmpd/DMSO (mean)

SMILES: O=S1(=O)C[C@H](NCCc2cccs2)[C@@H](S(=O)(=O)c2ccc(Cl)cc2)C1 [Compound D128]
- Firefly F4, cmpd/DMSO (mean) (NR2F6; 0.5 uM): 1.1
- Firefly F4, cmpd/DMSO (mean) (NR2F6; 2 uM): 1.7
- Firefly F4, cmpd/DMSO (mean) (NR2F6; 10 uM): 2.7
- Firefly F4, cmpd/DMSO (mean) (NR2F6; 40 uM): 3.5
- F4, Firefly/Renilla for S/B(F4) > 3 (NR2F6; 40 uM): 2.2
- Firefly, F4/pGL4 for S/B(F4) > 3 (NR2F6; 40 uM): 1.9
- Firefly, F4, 1% FBS, cmpd/DMSO (mean) (NR2F6; 0.5 uM): 1.2
- Firefly, F4, 1% FBS, cmpd/DMSO (mean) (NR2F6; 2 uM): 1.5
- Firefly, F4, 1% FBS, cmpd/DMSO (mean) (NR2F6; 10 uM): 2.0
- Firefly, F4, 1% FBS, cmpd/DMSO (mean) (NR2F6; 40 uM): 2.0
- Firefly, F4, 10% FBS, cmpd/DMSO (mean) (NR2F6; 0.5 uM): 0.8
- Firefly, F4, 10% FBS, cmpd/DMSO (mean) (NR2F6; 2 uM): 0.9
- Firefly, F4, 10% FBS, cmpd/DMSO (mean) (NR2F6; 10 uM): 1.4
- Firefly, F4, 10% FBS, cmpd/DMSO (mean) (NR2F6; 40 uM): 3.3
- fold induction at 0.5 µM (Renilla; [1]): 1
- fold induction at 2 µM (Renilla; [1]): 1.2
- fold induction at 10 µM (Renilla; [1]): 1.4
- fold induction at 40 µM (Renilla; [1]): 1.6
- fold induction at 0.5 µM (Renilla; [2]): 1.2
- fold induction at 2 µM (Renilla; [2]): 1.1
- fold induction at 10 µM (Renilla; [2]): 1.6
- fold induction at 40 µM (Renilla; [2]): 1.7
- fold induction at 0.5 µM (Renilla; [3]): 0.9
- fold induction at 2 µM (Renilla; [3]): 1
- fold induction at 10 µM (Renilla; [3]): 1.1
- fold induction at 40 µM (Renilla; [3]): 1.5
- Firefly LBD, cmpd/DMSO (mean) (NR2F6 LBD; 0.5 uM): 1.0
- Firefly LBD, cmpd/DMSO (mean) (NR2F6 LBD; 2 uM): 1.1
- Firefly LBD, cmpd/DMSO (mean) (NR2F6 LBD; 10 uM): 2.4
- Firefly LBD, cmpd/DMSO (mean) (NR2F6 LBD; 40 uM): 2.6
- fold induction at 0.5 µM (HEK293 pGL4; [4]): 1.2
- fold induction at 2 µM (HEK293 pGL4; [5]): 1.6
- fold induction at 10 µM (HEK293 pGL4; [6]): 2.1
- fold induction at 40 µM (HEK293 pGL4; [7]): 1.5
- fold induction at 0.5 µM (HEK293 pGL4; [8]): 1.1
- fold induction at 2 µM (HEK293 pGL4; [9]): 1.3
- fold induction at 10 µM (HEK293 pGL4; [10]): 1.9
- fold induction at 40 µM (HEK293 pGL4; [11]): 1.5
- fold induction at 0.5 µM (HEK293 pGL4; [12]): 0.8
- fold induction at 2 µM (HEK293 pGL4; [13]): 1.1
- fold induction at 10 µM (HEK293 pGL4; [14]): 1.5
- fold induction at 40 µM (HEK293 pGL4; [15]): 1.7

SMILES: COc1ccc(CCN[C@H]2CS(=O)(=O)C[C@@H]2S(=O)(=O)c2ccc(Cl)cc2)cc1OC [Compound D129]
- Firefly F4, cmpd/DMSO (mean) (NR2F6; 0.5 uM): 1.2
- Firefly F4, cmpd/DMSO (mean) (NR2F6; 2 uM): 2.0
- Firefly F4, cmpd/DMSO (mean) (NR2F6; 10 uM): 4.3
- Firefly F4, cmpd/DMSO (mean) (NR2F6; 40 uM): 3.4
- F4, Firefly/Renilla for S/B(F4) > 3 (NR2F6; 40 uM): 2.6
- Firefly, F4/pGL4 for S/B(F4) > 3 (NR2F6; 40 uM): 1.8
- Firefly, F4, 1% FBS, cmpd/DMSO (mean) (NR2F6; 0.5 uM): 0.9
- Firefly, F4, 1% FBS, cmpd/DMSO (mean) (NR2F6; 2 uM): 1.1
- Firefly, F4, 1% FBS, cmpd/DMSO (mean) (NR2F6; 10 uM): 2.9
- Firefly, F4, 1% FBS, cmpd/DMSO (mean) (NR2F6; 40 uM): 1.4
- Firefly, F4, 10% FBS, cmpd/DMSO (mean) (NR2F6; 0.5 uM): 1.1
- Firefly, F4, 10% FBS, cmpd/DMSO (mean) (NR2F6; 2 uM): 0.8
- Firefly, F4, 10% FBS, cmpd/DMSO (mean) (NR2F6; 10 uM): 1.9
- Firefly, F4, 10% FBS, cmpd/DMSO (mean) (NR2F6; 40 uM): 4.1
- fold induction at 0.5 µM (Renilla; [1]): 1.1
- fold induction at 2 µM (Renilla; [1]): 1.2
- fold induction at 10 µM (Renilla; [1]): 1.4
- fold induction at 40 µM (Renilla; [1]): 1.6
- fold induction at 0.5 µM (Renilla; [2]): 1.1
- fold induction at 2 µM (Renilla; [2]): 1.1
- fold induction at 10 µM (Renilla; [2]): 1.6
- fold induction at 40 µM (Renilla; [2]): 1.5
- fold induction at 0.5 µM (Renilla; [3]): 1
- fold induction at 2 µM (Renilla; [3]): 0.9
- fold induction at 10 µM (Renilla; [3]): 1.1
- fold induction at 40 µM (Renilla; [3]): 1.5
- Firefly LBD, cmpd/DMSO (mean) (NR2F6 LBD; 0.5 uM): 1.1
- Firefly LBD, cmpd/DMSO (mean) (NR2F6 LBD; 2 uM): 1.7
- Firefly LBD, cmpd/DMSO (mean) (NR2F6 LBD; 10 uM): 2.7
- Firefly LBD, cmpd/DMSO (mean) (NR2F6 LBD; 40 uM): 2.4
- fold induction at 0.5 µM (HEK293 pGL4; [4]): 1.4
- fold induction at 2 µM (HEK293 pGL4; [5]): 1.5
- fold induction at 10 µM (HEK293 pGL4; [6]): 2.9
- fold induction at 40 µM (HEK293 pGL4; [7]): 1.6
- fold induction at 0.5 µM (HEK293 pGL4; [8]): 1.4
- fold induction at 2 µM (HEK293 pGL4; [9]): 1.2
- fold induction at 10 µM (HEK293 pGL4; [10]): 1.9
- fold induction at 40 µM (HEK293 pGL4; [11]): 1.6
- fold induction at 0.5 µM (HEK293 pGL4; [12]): 1
- fold induction at 2 µM (HEK293 pGL4; [13]): 1
- fold induction at 10 µM (HEK293 pGL4; [14]): 2
- fold induction at 40 µM (HEK293 pGL4; [15]): 2.2

SMILES: CC(=O)Nc1ccc(S(=O)(=O)[C@H]2CS(=O)(=O)C[C@@H]2NC2CC2)cc1 [Compound D133]
- Firefly F4, cmpd/DMSO (mean) (NR2F6; 0.5 uM): 1.0
- Firefly F4, cmpd/DMSO (mean) (NR2F6; 2 uM): 1.4
- Firefly F4, cmpd/DMSO (mean) (NR2F6; 10 uM): 1.8
- Firefly F4, cmpd/DMSO (mean) (NR2F6; 40 uM): 1.3
- Firefly, F4, 1% FBS, cmpd/DMSO (mean) (NR2F6; 0.5 uM): 0.8
- Firefly, F4, 1% FBS, cmpd/DMSO (mean) (NR2F6; 2 uM): 0.8
- Firefly, F4, 1% FBS, cmpd/DMSO (mean) (NR2F6; 10 uM): 1.2
- Firefly, F4, 1% FBS, cmpd/DMSO (mean) (NR2F6; 40 uM): 0.9
- Firefly, F4, 10% FBS, cmpd/DMSO (mean) (NR2F6; 0.5 uM): 1.5
- Firefly, F4, 10% FBS, cmpd/DMSO (mean) (NR2F6; 2 uM): 0.9
- Firefly, F4, 10% FBS, cmpd/DMSO (mean) (NR2F6; 10 uM): 1.0
- Firefly, F4, 10% FBS, cmpd/DMSO (mean) (NR2F6; 40 uM): 1.0
- fold induction at 0.5 µM (Renilla; [1]): 1
- fold induction at 2 µM (Renilla; [1]): 1
- fold induction at 10 µM (Renilla; [1]): 1.1
- fold induction at 40 µM (Renilla; [1]): 1.1
- fold induction at 0.5 µM (Renilla; [2]): 1
- fold induction at 2 µM (Renilla; [2]): 1
- fold induction at 10 µM (Renilla; [2]): 1
- fold induction at 40 µM (Renilla; [2]): 1.1
- fold induction at 0.5 µM (Renilla; [3]): 0.9
- fold induction at 2 µM (Renilla; [3]): 0.9
- fold induction at 10 µM (Renilla; [3]): 1
- fold induction at 40 µM (Renilla; [3]): 1
- Firefly LBD, cmpd/DMSO (mean) (NR2F6 LBD; 0.5 uM): 1.1
- Firefly LBD, cmpd/DMSO (mean) (NR2F6 LBD; 2 uM): 1.1
- Firefly LBD, cmpd/DMSO (mean) (NR2F6 LBD; 10 uM): 1.4
- Firefly LBD, cmpd/DMSO (mean) (NR2F6 LBD; 40 uM): 1.1
- fold induction at 0.5 µM (HEK293 pGL4; [4]): 1.1
- fold induction at 2 µM (HEK293 pGL4; [5]): 1.1
- fold induction at 10 µM (HEK293 pGL4; [6]): 1.9
- fold induction at 40 µM (HEK293 pGL4; [7]): 1.1
- fold induction at 0.5 µM (HEK293 pGL4; [8]): 1.3
- fold induction at 2 µM (HEK293 pGL4; [9]): 1.1
- fold induction at 10 µM (HEK293 pGL4; [10]): 1.3
- fold induction at 40 µM (HEK293 pGL4; [11]): 1
- fold induction at 0.5 µM (HEK293 pGL4; [12]): 0.9
- fold induction at 2 µM (HEK293 pGL4; [13]): 0.9
- fold induction at 10 µM (HEK293 pGL4; [14]): 1.3
- fold induction at 40 µM (HEK293 pGL4; [15]): 1.2
